Assay results as given in patent US10329317B2, “Quinoline derivative for use in the treatment and prevention of viral infections” (ABIVAX, priority 2015, dated 2019).

Key:
[1] = target: T1, Recombinant human CBC with capped RNA substrate (Homo sapiens, UniProt P52298+Q09161); test: Gel-mobility shift assay of CBC binding to capped RNA; details: Compound 1 5-100 μM, Compound 2 5-50 μM, m7GpppG 12 mM
T1 construct: made in house
T1 sequence (Q09161 20-790 limits assumed): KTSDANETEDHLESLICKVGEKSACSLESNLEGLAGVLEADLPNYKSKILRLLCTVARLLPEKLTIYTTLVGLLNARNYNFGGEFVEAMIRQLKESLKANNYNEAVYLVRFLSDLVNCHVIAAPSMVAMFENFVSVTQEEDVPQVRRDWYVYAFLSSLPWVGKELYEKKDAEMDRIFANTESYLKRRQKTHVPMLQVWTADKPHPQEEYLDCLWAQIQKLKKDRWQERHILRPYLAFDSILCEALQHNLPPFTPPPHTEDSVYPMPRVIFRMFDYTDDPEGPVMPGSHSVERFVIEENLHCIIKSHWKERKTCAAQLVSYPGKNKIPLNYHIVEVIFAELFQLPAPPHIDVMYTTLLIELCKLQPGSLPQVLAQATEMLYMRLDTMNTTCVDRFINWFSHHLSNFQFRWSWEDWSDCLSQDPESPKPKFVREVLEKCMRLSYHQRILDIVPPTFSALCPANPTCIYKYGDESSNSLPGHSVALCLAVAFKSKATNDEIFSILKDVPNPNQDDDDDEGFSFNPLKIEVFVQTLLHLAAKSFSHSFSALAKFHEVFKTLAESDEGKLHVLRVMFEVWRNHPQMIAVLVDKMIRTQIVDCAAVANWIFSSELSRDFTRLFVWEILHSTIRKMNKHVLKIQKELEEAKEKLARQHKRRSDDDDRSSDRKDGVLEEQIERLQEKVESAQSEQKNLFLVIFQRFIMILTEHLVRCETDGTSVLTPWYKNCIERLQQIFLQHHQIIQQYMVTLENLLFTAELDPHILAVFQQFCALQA
T1 sequence (P52298 1-156): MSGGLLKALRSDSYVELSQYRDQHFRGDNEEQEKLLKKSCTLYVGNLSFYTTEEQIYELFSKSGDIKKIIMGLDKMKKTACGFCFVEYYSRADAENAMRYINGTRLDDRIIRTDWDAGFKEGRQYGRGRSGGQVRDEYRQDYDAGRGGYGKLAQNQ
Description: FIG. 1B. […] Recombinant human CBC was incubated with a capped RNA substrate and analyzed by native gel electrophoresis in order to resolve the different RNA and RNA-protein complexes: free RNA (lane 1), and CBC-RNA complexes (lanes 2-10) in the presence of 12 mM of m7GppG (lanes 10) or 5 μM, 10 μM or 50 μM of Compound 2 (lanes 2-5, respectively) and 5 μM, 10 μM, 50 μM or 100 μM of Compound 1 (lanes 6-9, respectively).
Recombinant human CBC was incubated with a capped RNA substrate in the presence of increasing concentrations of compound 1 or compound 2 or a m(7)GpppG cap analogue and analyzed by native gel electrophoresis in order to resolve the different RNA and RNA-protein complexes according to Mazza et al. (Large-scale induced fit recognition of an m(7)GpppG cap analogue by the human nuclear cap-binding complex. EMBO J. 21, 5548-5557 (2002).

[2] = target: T2, CBC complex (CBP20 and CBP80) (Homo sapiens, UniProt P52298+Q09161); test: UV-induced covalent bridging of purified recombinant CBP20 and CBP80 (SDS-PAGE / Western blot); type: binding; details: purified recombinant CBP20 and CBP80, UV light, resolved by SDS-PAGE
T2 construct: made in house
T2 sequence (Q09161 20-790 limits assumed): T1 sequence (Q09161 20-790 limits assumed)
T2 sequence (P52298 1-156): T1 sequence (P52298 1-156)
Description: FIG. 1A. Compounds 1 and 2 interact with the CBC complex. Purified recombinant CBP20 and CBP80 proteins were incubated with increasing concentrations of Compound 2 (left panel) or Compound 1 (right panel, Gluc) and treated during 30 min (Compound 1) or 15 min (Compound 2) with UV light. […] Left panel: from left to right, incubation with 0.1 (lane 1), 1 (lane 2), 10 (lane 3) and 50 μM (lane 4) […]. Right panel: from left to right, incubation with 1 (lane 1), 10 (lane 2), 50 (lane 3), 100 μM (lane 4) and 200 μM (lane 5) of Compound 1.
The recombinant CBC complex, comprising CBP20 and CBP80, is prepared according to the protocol which has been described in Worch, R. et al. (Specificity of recognition of mRNA 5′ cap by human nuclear cap-binding complex. RNA 11, 1355-1363 (2005)).
Compound 1 can make covalent binding with purified CBC complex after […] irradiation with UV light at 365 nm.
The same results were obtained with the glucuronidated Compound 1, the more soluble derivative of Compound 2 that is produced as metabolite using human hepatocytes.

Row | competition of the complex between CBC and capped RNA [1] | covalent bridging between CBP20 and CBP80 after UV irradiation [2] | Compound
1 | competed |  | Cn1c[n+]([C@@H]2O[C@H](COP(=O)(O)OP(=O)([O-])OP(=O)(O)OC[C@H]3O[C@@H](n4cnc5c(=O)[nH]c(N)nc54)[C@H](O)[C@@H]3O)[C@@H](O)[C@H]2O)c2nc(N)[nH]c(=O)c21 [m^7GpppG, reference compound]
2 | no competition | dose-dependent covalent bridging | FC(F)(F)Oc1ccc(Nc2ccc3cccc(Cl)c3n2)cc1 [Compound 2, 8-chloro-N-(4-(trifluoromethoxy)phenyl)quinolin-2-amine]
